# From ChEMBL document CHEMBL1137719, “Receptor-based 3D-QSAR studies of checkpoint Wee1 kinase inhibitors” (Eur J Med Chem, 2009)
# “And” between values parts separate entries of the source, which are not always exact repeats. Equal entries are not always repeated.
# Target: Wee1-like protein kinase (Homo sapiens, UniProt P30291)
# Sequence (P30291 whole entry): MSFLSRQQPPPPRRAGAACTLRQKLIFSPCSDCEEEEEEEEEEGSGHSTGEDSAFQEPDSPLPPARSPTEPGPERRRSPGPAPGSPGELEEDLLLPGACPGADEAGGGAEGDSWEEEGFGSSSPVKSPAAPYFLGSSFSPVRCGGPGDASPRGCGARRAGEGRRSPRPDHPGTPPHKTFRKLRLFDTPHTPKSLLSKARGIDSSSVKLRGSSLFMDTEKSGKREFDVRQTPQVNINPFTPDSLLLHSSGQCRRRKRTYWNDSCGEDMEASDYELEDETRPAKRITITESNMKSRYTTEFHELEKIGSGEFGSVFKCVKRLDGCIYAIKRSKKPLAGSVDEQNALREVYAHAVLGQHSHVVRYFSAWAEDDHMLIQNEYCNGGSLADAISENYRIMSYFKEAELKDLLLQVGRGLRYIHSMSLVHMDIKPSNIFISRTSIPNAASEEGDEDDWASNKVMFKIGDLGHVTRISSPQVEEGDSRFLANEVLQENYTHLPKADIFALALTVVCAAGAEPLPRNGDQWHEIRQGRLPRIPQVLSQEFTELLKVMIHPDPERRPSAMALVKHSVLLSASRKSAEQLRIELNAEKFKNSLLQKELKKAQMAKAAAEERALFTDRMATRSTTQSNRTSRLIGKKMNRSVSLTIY
row,Structure (SMILES),IC50
1,O=C1NC(=O)c2c1ccc1c2c2cc(O)ccc2n1CCC(=O)n1ccnc1,0.229 µM and 0.23 µM
2,CS(=O)(=O)c1ccc(-c2cc3[nH]c4ccc(O)cc4c3c3c2C(=O)NC3=O)cc1,1.12 µM and 1.1 µM
3,NN1C(=O)c2c(-c3ccccc3)cc3[nH]c4ccc(O)cc4c3c2C1=O,3.98 µM
4,O=C1NC(=O)c2c1ccc1c2c2cc(O)ccc2n1CCC(=O)N1CCOCC1,0.14 µM and 0.141 µM
5,CN1CCN(CCCn2c3ccc(O)cc3c3c4c(ccc32)C(=O)NC4=O)CC1,0.302 µM and 0.3 µM
6,O=C1NC(=O)c2c1c(-c1cccc(O)c1Cl)cc1[nH]c3ccc(O)cc3c21,0.0282 µM
7,O=C1NC(=O)c2c1c(-c1c(Cl)cccc1Cl)cc1c2c2cc(O)ccc2n1CCC(=O)N1CCOCC1,0.11 µM
8,O=C1NC(=O)c2c1c(-c1ccccc1Cl)cc1c2c2cc(O)ccc2n1CCC(=O)N1CCOCC1,0.0646 µM and 0.064 µM
9,NC(=O)CCn1c2ccc(O)cc2c2c3c(ccc21)C(=O)NC3=O,0.0209 µM and 0.021 µM
10,O=C1NC(=O)c2c1c(-c1ccccc1Cl)cc1c2c2cc(O)ccc2n1CCSn1ccnn1,0.024 µM
11,CNCCCn1c2ccc(O)cc2c2c3c(ccc21)C(=O)NC3=O,0.282 µM and 0.28 µM
12,O=C1NC(=O)c2c1ccc1c2c2cc(O)ccc2n1CCO,0.0251 µM and 0.025 µM
13,O=C1NC(=O)c2c1ccc1c2c2cc(O)ccc2n1CCCNc1ccccc1,0.0933 µM and 0.093 µM
14,O=C1NC(=O)c2c1c(-c1c(Cl)cccc1Cl)cc1c2c2cc(O)ccc2n1CCC(=O)n1ccnc1,0.12 µM
15,O=C1NC(=O)c2c1ccc1c2c2cc(O)ccc2n1CCCC(=O)N1CCOCC1,0.288 µM and 0.29 µM
16,CN(C)CCCn1c2ccc(O)cc2c2c3c(ccc21)C(=O)NC3=O,0.36 µM and 0.363 µM
17,CSc1ccc(-c2cc3[nH]c4ccc(O)cc4c3c3c2C(=O)NC3=O)cc1,31.6 µM
18,O=C1NC(=O)c2c1c(-c1ccccc1)c(-c1ccccc1)c1[nH]c3ccc(O)cc3c21,2.34 µM
19,O=C1NC(=O)c2c1ccc1c2c2cc(O)ccc2n1CCCO,0.2 µM
20,O=C1NC(=O)c2c1c(I)cc1[nH]c3ccc(O)cc3c21,2.34 µM
21,O=C1NC(=O)c2c1c(-c1c(Cl)cccc1Cl)cc1c2c2cc(O)ccc2n1CCCC(=O)N1CCOCC1,0.0646 µM and 0.064 µM
22,Cn1c2cc(CCCCn3cccc3)c(O)cc2c2c3c(c(-c4ccccc4Cl)cc21)C(=O)NC3=O,0.036 µM and 0.0363 µM
23,CC(=O)c1cccc(-c2cc3[nH]c4ccc(O)cc4c3c3c2C(=O)NC3=O)c1,4.37 µM

row,Structure (SMILES),IC50
1,O=C1NC(=O)c2c1ccc1c2c2cc(O)ccc2n1CCCC(=O)n1ccnc1,0.11 µM
2,CN(C)CCn1c2ccc(O)cc2c2c3c(ccc21)C(=O)NC3=O,0.2 µM
3,Nc1cc(-c2cc3[nH]c4ccc(O)cc4c3c3c2C(=O)NC3=O)ccc1Cl,0.024 µM
4,O=C1NC(=O)c2c1c(-c1ccccc1Cl)cc1c2c2c(n1CCO)=CC(OCCCn1cccc1)C(O)(O)C=2 (stereo not given),0.018 µM and 0.0182 µM
5,O=C1NC(=O)c2c1cc(-c1ccccc1)c1[nH]c3ccc(O)cc3c21,4.07 µM
6,O=C1NC(=O)c2c1c(-c1ccccc1Cl)cc1c2c2cc(O)ccc2n1CCC(=O)n1ccnc1,0.0912 µM and 0.092 µM
7,CN(C)CCNC(=O)CCn1c2ccc(O)cc2c2c3c(ccc21)C(=O)NC3=O,0.17 µM
8,Cn1c2ccc(O)cc2c2c3c(ccc21)C(=O)NC3=O,0.141 µM and 0.14 µM
9,O=C1NC(=O)c2c1c(-c1ccccc1Cl)cc1c2c2cc(O)ccc2n1CC[S+]([O-])n1ccnn1 (stereo not given),0.009 µM and 0.00891 µM
10,O=C1NC(=O)c2c1c(-c1c(Cl)cccc1Cl)cc1c2c2cc(O)ccc2n1CCCC(=O)n1ccnc1,0.0589 µM and 0.059 µM
11,O=C1NC(=O)c2c1c(-c1ccccc1Cl)cc1[nH]c3cc(CCCCn4cccc4)c(O)cc3c21,0.05 µM and 0.0501 µM
12,O=C1NC(=O)c2c1c(-c1ccccc1Cl)cc1c2c2cc(O)ccc2n1CCCC(=O)n1ccnc1,0.054 µM and 0.0537 µM
13,Cn1c2cc([S+]([O-])CCCn3cccc3)c(O)cc2c2c3c(c(-c4ccccc4Cl)cc21)C(=O)NC3=O (stereo not given),0.033 µM and 0.0331 µM
14,Cn1c2cc(S(=O)(=O)CCCn3cccc3)c(O)cc2c2c3c(c(-c4ccccc4Cl)cc21)C(=O)NC3=O,0.16 µM and 0.158 µM
15,O=C1NC(=O)c2c1c(-c1ccccc1Cl)cc1c2c2cc(O)ccc2n1CCS(=O)(=O)n1ccnn1,0.019 µM and 0.0191 µM
16,Cn1c2cc(S(=O)(=O)NCCn3cccc3)c(O)cc2c2c3c(c(-c4ccccc4Cl)cc21)C(=O)NC3=O,0.046 µM and 0.0457 µM
17,O=C1NC(=O)c2c1c(-c1ccccc1Cl)cc1c2c2cc(O)c(CCCCn3cccc3)cc2n1CCO,0.024 µM
18,O=C1NC(=O)c2c1c(-c1ccccc1Cl)cc1c2c2cc(O)c(OCCCn3cccc3)cc2n1CCO,0.024 µM
19,Cn1c2cc(SCCCn3cccc3)c(O)cc2c2c3c(c(-c4ccccc4Cl)cc21)C(=O)NC3=O,0.02 µM
20,O=C1NC(=O)c2c1c(-c1ccccc1Cl)cc1[nH]c3cc(OCCCn4cccc4)c(O)cc3c21,0.036 µM and 0.0363 µM
21,O=C1NC(=O)c2c1c(-c1ccc(-c3ccccc3)cc1)cc1[nH]c3ccc(O)cc3c21,40 µM
22,O=C(O)CCn1c2ccc(O)cc2c2c3c(ccc21)C(=O)NC3=O,0.0229 µM and 0.023 µM
